Measured values taken from patent publication US10940139B2, “Compounds that interact with the Ras superfamily for the treatment of cancers, inflammatory diseases, rasopathies, and fibrotic disease” (Shy Therapeutics LLC, priority 2017, dated 2021).

How the values were obtained:
Rho-A = Rho-A (Homo sapiens (Human), UniProt P61586); experiment: Rho inhibition assay (labeled GTP); format: binding; details: read-out: Rho-A % Inh.
[1] = biological target: KRas G12D/Q61H double mutant (Homo sapiens (Human), UniProt P01116, G12D/Q61H); experiment: Ras GTP binding domain inhibition assay (labeled GTP); details: at 20 μM; read-out: KRas G12D Q61H % Inh.
KRas G12D/Q61H double mutant, sequence (P01116-2 other isoform, or with tags, fused parts or gaps G12D/Q61H): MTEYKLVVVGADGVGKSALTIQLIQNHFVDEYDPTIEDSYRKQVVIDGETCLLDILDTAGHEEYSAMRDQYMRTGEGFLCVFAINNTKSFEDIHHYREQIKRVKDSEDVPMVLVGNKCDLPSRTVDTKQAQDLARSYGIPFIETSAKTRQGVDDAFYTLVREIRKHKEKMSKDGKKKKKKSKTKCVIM
How it was run: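 Inhibition of labeled GTP binding is measured on immobilized His-KRas protein in Tris buffer pH 7.5 with 1 mM MgCl2 and 1 mM DTT.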

Rac-1 = Rac-1 (Homo sapiens (Human), UniProt P63000); experiment: Rac inhibition assay (labeled GTP); format: binding; details: read-out: Rac-1 % Inh.

Rho-A, sequence (P61586 whole entry, the tested form may be a part): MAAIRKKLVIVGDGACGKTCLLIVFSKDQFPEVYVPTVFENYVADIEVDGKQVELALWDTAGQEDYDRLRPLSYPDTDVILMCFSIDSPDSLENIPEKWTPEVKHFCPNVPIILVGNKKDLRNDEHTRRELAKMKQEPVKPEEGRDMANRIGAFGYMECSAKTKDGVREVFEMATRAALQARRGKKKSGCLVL

Row | SMILES | inhibition at 20 µM (Rho-A) [%] | inhibition at 20 µM [1] [%] | inhibition at 20 µM (Rac-1) [%]
1 | COc1ccc(C2CN(C(=O)c3csc4c(O)nc(-c5ccccn5)nc34)CCO2)cc1 (stereo not drawn) [drawing 3657] | 25 to 50 | 25 to 50 | 25 to 50
2 | O=C(c1csc2c(O)nc(-c3ccccn3)nc12)N1CCOC(c2cccc(Cl)c2)C1 (stereo not drawn) [drawing 3659] | 51 to 75 | 1 to 25 | 1 to 25
3 | O=C(c1csc2c(O)nc(-c3ccccn3)nc12)N1CCOC(Cc2ccccc2)C1 (stereo not drawn) [drawing 3660] | 76 to 100 | 25 to 50 | 76 to 100
4 | COc1ccccc1C1CN(C(=O)c2csc3c(O)nc(-c4ccccn4)nc23)CCN1 (stereo not drawn) [drawing 3661] | 76 to 100 | 25 to 50 | 1 to 25
5 | COc1ccc(C2CN(C(=O)c3csc4c(O)nc(-c5ccccn5)nc34)CCN2)cc1 (stereo not drawn) [drawing 3663] | 76 to 100 | 1 to 25 | 76 to 100
6 | Cc1ccccc1C1CN(C(=O)c2csc3c(O)nc(-c4ccccn4)nc23)CCN1 (stereo not drawn) [drawing 3664] | 76 to 100 | 25 to 50 | 76 to 100
7 | O=C(c1csc2c(O)nc(-c3ccccn3)nc12)N1CCNC(c2ccccc2F)C1 (stereo not drawn) [drawing 3665] | 76 to 100 | 25 to 50 | 76 to 100
8 | Cn1cc(C2CN(C(=O)c3csc4c(O)nc(-c5ccccn5)nc34)CCN2)cn1 (stereo not drawn) [drawing 3666] | 76 to 100 | 1 to 25 | 76 to 100
9 | O=C(c1csc2c(O)nc(-c3ccccn3)nc12)N1CCNC(Cc2ccccc2)C1 (stereo not drawn) [drawing 3667] | 76 to 100 | 25 to 50 | 76 to 100
10 | O=C(NCCc1ccncc1)c1csc2nc(-c3ccccn3)nc(N3CCOCC3)c12 [drawing 3668] | 51 to 75 | 0 | 76 to 100
11 | COc1ccncc1CCNC(=O)c1csc2nc(-c3ccccn3)nc(N3CCOCC3)c12 [drawing 3669] | 25 to 50 | 1 to 25 | 51 to 75
12 | COc1cc(CCN(C)C(=O)c2csc3nc(-c4ccccn4)nc(N4CCOCC4)c23)ccn1 [drawing 3670] | 51 to 75 | 0 | 76 to 100
13 | O=C(NCCc1ccnc(O)c1)c1csc2nc(-c3ccccn3)nc(N3CCOCC3)c12 [drawing 3672] | 25 to 50 | 1 to 25 | 25 to 50
14 | O=C(NCCc1cncnc1)c1csc2nc(-c3ccccn3)nc(N3CCOCC3)c12 [drawing 3673] | 51 to 75 | 1 to 25 | 51 to 75
15 | O=C(NCCc1ccc(O)c(O)c1)c1csc2nc(-c3ccccn3)nc(N3CCOCC3)c12 [drawing 3674] | 25 to 50 | 0 | 25 to 50
16 | O=C(NCCc1nnn[nH]1)c1csc2nc(-c3ccccn3)nc(N3CCOCC3)c12 [drawing 3675] | 51 to 75 | 1 to 25 | 76 to 100
17 | N#Cc1cccc(CCNC(=O)c2csc3nc(-c4ccccn4)nc(N4CCOCC4)c23)c1 [drawing 3676] | 51 to 75 | 1 to 25 | 51 to 75
18 | CN(CCc1cccc(C#N)c1)C(=O)c1csc2nc(-c3ccccn3)nc(N3CCOCC3)c12 [drawing 3677] | 51 to 75 | 1 to 25 | 76 to 100
19 | COCCCCNC(=O)c1csc2nc(-c3ccccn3)nc(N3CCOCC3)c12 [drawing 3678] | 51 to 75 | 1 to 25 | 51 to 75
20 | COCCCCN(C)C(=O)c1csc2nc(-c3ccccn3)nc(N3CCOCC3)c12 [drawing 3679] | 51 to 75 | 1 to 25 | 76 to 100
21 | CNS(=O)(=O)CCCNC(=O)c1csc2nc(-c3ccccn3)nc(N3CCOCC3)c12 [drawing 3680] | 51 to 75 | 1 to 25 | 76 to 100
22 | COCCN(CCOC)c1nc(-c2ccccn2)nc2scc(C(=O)NCCc3ccc(OC)nc3)c12 [drawing 3681] | 51 to 75 | 1 to 25 | 51 to 75
23 | COCCCCNC(=O)c1csc2nc(-c3ccccn3)nc(N(CCOC)CCOC)c12 [drawing 3682] | 51 to 75 | 0 | 76 to 100
24 | CC(C(=O)Nc1ccnc(-c2ccccn2)n1)c1ccc(C#N)cc1 (stereo not drawn) [drawing 3683] | 51 to 75 | 1 to 25 | 76 to 100
25 | COc1ccc2c(c1)CCC2C(=O)Nc1ccnc(-c2ccccn2)n1 (stereo not drawn) [drawing 3684] | 51 to 75 | 1 to 25 | 51 to 75
